Values of other authors, collected in patent US20210214291A1, “Rapid Thermal Isomerization of Lycopene” (priority 2020, published 2021).
Where two headings read alike, the source gives them in different places.

Experiments:
[1] = organic solvents, 24 hrs
[2] = system: super oxide dismutase (SOD) activity; settings: for increase in SOD activity: patients

isomerization ratio to the cis-isomer ([1]; 4 C) [%]	isomerization ratio to the cis-isomer ([1]; 50 C) [%]	increase in SOD activity ([2]; daily 6 mg for 8 wks) [units per milliliter]	increase in SOD activity ([2]; daily 15 mg for 8 wks) [units per milliliter]	Structure (SMILES)	reduction in C-reactive protein (CRP) levels ([2]; high dose group (15 mg daily, 8 wks)) [%]
11.4	77.8	–	–	CC(C)=CCC/C(C)=C/C=C/C(C)=C/C=C/C(C)=C/C=C/C=C(C)/C=C/C=C(C)/C=C/C=C(\C)CCC=C(C)C [trans-lycopene]	–
–	–	1.73	2.37	CC(C)=CCC/C(C)=C/C=C/C(C)=C/C=C/C(C)=C/C=C/C=C(C)/C=C/C=C(C)/C=C/C=C(\C)CCC=C(C)C [lycopene]	57
